# Experimental data as given in patent US10494334B2, “Compounds to inhibit calcium/calmodulin dependent protein kinase II and applications thereof” (priority 2018, dated 2019).
# Assays:
# BE(2)C cells = test: XTT cell proliferation assay; type: cell-based; conditions: Homo sapiens, 6.25 μM compound, compared to solvent control
# Protocol: The cytotoxicity of candidate compounds to BE(2)C cells was evaluated by use of the cytotoxicity detection kit (LDH) (Roche), cell proliferation kit (XTT) (Roche), and Trypan blue cell counting assay. Briefly, cells were treated overnight with the candidate compounds at the indicated doses and subjected to the three assays. For LDH and XTT assays, light absorbance of the sample at 490 nm was determined by using an enzyme-linked immunosorbent assay (ELISA) reader (Molecular Devices). For Trypan blue cell counting assay, the number of viable cells was determined by use of haemocytometer. Data was normalized to solvent control and presented as a percentage.
# purified human CaMKII = target: T1, purified human CaMKII (Homo sapiens, UniProt Q9UQM7); test: CaMKII biochemical assay (CycLex CaM kinase II Assay Kit); conditions: syntide-2 substrate, Ca2+, calmodulin, Mg2+, ATP; normalized to solvent control
# T1 construct: MBL Internationl Corp (assay kit)
# Protocol: A commercial CaMKII inhibitor, KN-62 (Selleckchem, S7422) was used as a positive control. Kinase reaction buffer without Ca^2+ was used as a negative control. The assay wells of the microtiter plate were then incubated with HRP-conjugated-anti-phospho-syntide-2 antibody, followed by addition of syntide-2. The phosphorylation reaction was stopped after incubation at room temperature for 15 minutes. Sample absorbance at 450 nm was determined by use of an ELISA reader (Molecular Devices). Data was normalized to solvent control and presented as a percentage.
# [1] = tested on: DENV-2-eGFP reporter virus; test: Cell-based anti-DENV-2 screening with DENV-2-eGFP reporter virus in BE(2)C cells; design: species or system type 2 dengue virus; conditions: Dengue virus, DENV2, BE(2)-C, 24 h, read-out: DENV-2 infection %
# ZIKV = test: Virus binding/entry assays, ZIKV on BE(2)C cells
# Protocol: For the virus entry assay, BE(2)C cells were first adsorbed with DENV-2 or ZIKV at 4° C. for 90 minutes. […] Thereafter, the cells were treated with an acidic glycine solution (0.1 M, pH=3) for 5 minutes to inactivate non-internalized virus and washed with cold Hank's balanced salt solution (HBSS). The cells were harvested with cell scrapers, and the adsorbed viruses were released by passing the cells through a 27-G needle 7 times. Cell lysates were centrifuged at 12,000 rpm for 1 minute, and the supernatant was used for plaque-forming assay to determine the level of virus binding and/or entry.
# ZIKV PRVABC59 strain = test: Animal study, ZIKV-infected Stat1-deficient mice; type: in vivo; conditions: for median survival time (T50): 8 mg/kg of body weight/day oral
# Protocol: (§1) The mouse experiments were approved by the Academia Sinica Institutional Animal Care and Use Committee and performed in accordance with the guidelines. Infection was performed in mice under isoflurane anesthesia to minimize animal suffering. The DENV-2 New Guinea C strain serially passaged in mouse brain (NGC-N), kindly provided by Dr. Ching-Juh Lai (National Institutes of Health, USA) and ZIKV PRVABC59 strain were used in the animal study. Groups of 6-week-old Stat1^−/− mice were intravenously infected in the tail with 1×10^5 PFU of DENV-2 per mouse or subcutaneously infected in the footpad with 5×10^4 PFU of ZIKV per mouse. […] The mice were checked daily for severe symptoms including limb paralysis. Euthanasia of mice with severe limb paralysis was performed as the endpoint of animal survival. Mice survival was presented as percentage of survival. Mouse serum samples were collected on day 3 after infection by phlebotomy from facial vein, and the virus load was determined by plaque-forming assay.
# (§2) Data are presented as mean±standard deviation and were compared by ANOVA and Bonferroni post-hoc test unless otherwise specified. Statistical significance was set at P values of <0.05 or <0.01. A survival curve was descriptively analyzed by use of SigmaPlot v10.0 (Systat software). The median survival time (T50) and P values, based on log-rank test, were determined by use of Prism v5.0 (GraphPad software). For Western blotting, the band intensity was quantified by use of ImageJ software (National Institutes of Health).
# DENV-2 NGC-N strain = test: Animal study, DENV-2-infected Stat1-deficient mice; type: in vivo; conditions: for overall survival: 6-day treatment
# Protocol: as §1, §2
# DENV-2 = test: Virus binding/entry assays, DENV-2 on BE(2)C cells; type: cell-based, type 2 dengue virus
# DENV-2 PL046 strain = test: Antiviral assay, wild type DENV-2 in BE(2)C cells (IFA, Western blotting, plaque-forming assay); type: cell-based, type 2 dengue virus; conditions: three hours of treatment during viral adsorption (0-3 hpi), MOI 1, Western blot
# [2] = 37° C. for 60 minutes after adsorption, dose-dependent
# [3] = adsorption at 4° C. for 90 minutes
# [4] = immediate treatment, 4 mg/kg of body weight/day oral
# [5] = serum on day 3 after infection, plaque-forming assay, dose-dependent
# [6] = 8-hours-delay treatment, 4 mg/kg of body weight/day oral
# [7] = immediate treatment, 2 mg/kg of body weight/day oral
# T1 sequence (Q9UQM7 with tags, fused parts or gaps): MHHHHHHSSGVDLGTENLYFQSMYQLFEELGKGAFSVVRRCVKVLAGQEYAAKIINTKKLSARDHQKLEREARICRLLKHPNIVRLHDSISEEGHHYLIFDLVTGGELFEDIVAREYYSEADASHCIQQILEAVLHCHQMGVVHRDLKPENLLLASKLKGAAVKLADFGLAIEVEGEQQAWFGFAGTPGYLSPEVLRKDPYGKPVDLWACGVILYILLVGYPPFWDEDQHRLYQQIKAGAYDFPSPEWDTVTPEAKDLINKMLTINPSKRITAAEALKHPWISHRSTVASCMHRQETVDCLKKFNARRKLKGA
Compound,viability at 6.25 µM (BE(2)C cells) [%],activity at 3.125 µM [1] [%],melting point [°C],also measured
"COc1ccc(S(=O)(=O)N(CCCC(=O)C2CCC2)c2ccccc2)cc1 [Compound 7, N-(4-cyclobutyl-4-oxobutyl)-4-methoxy-N-phenylbenzenesulfonamide]",93.9,33,,IC50 (purified human CaMKII): ~600 nM
"COc1ccc(S(=O)(=O)N(CCCC(=O)C2C3CC4CC(C3)CC2C4)c2ccccc2)cc1 (centres unmarked) [Compound 10, N-(4-(adamantan-2-yl)-4-oxobutyl)-4-methoxy-N-phenylbenzenesulfonamide]",96.7,51.1,117 to 118,
"COc1ccc(S(=O)(=O)N(CCCC(=O)C2CCCCCC2)c2ccccc2)cc1 [Compound 9, N-(4-cycloheptyl-4-oxobutyl)-4-methoxy-N-phenylbenzenesulfonamide]",,9.6,,"level of ZIKV entry (ZIKV; [2]): significantly reduced; level of ZIKV binding/entry (ZIKV; MOI 10, 90 minutes at room temperature): significantly reduced; ZIKV binding to cells (ZIKV; [3]): no effect; overall survival (ZIKV PRVABC59 strain; 8-hours-delay treatment): minor effect; median survival time (T50) (ZIKV PRVABC59 strain; 8-hours-delay treatment): 10 days; overall survival (ZIKV PRVABC59 strain; [4]): did not improve; median survival time (T50) (ZIKV PRVABC59 strain; immediate treatment): 11 days; viral load (ZIKV PRVABC59 strain; [5]): significantly reduced; median survival time (T50) (DENV-2 NGC-N strain; 8-hours-delay treatment, 2 mg/kg of body weight/day oral): 14 days; median survival time (T50) (DENV-2 NGC-N strain; [6]): 22 days; mice protected from mortality (DENV-2 NGC-N strain; [6]): 40%; median survival time (T50) (DENV-2 NGC-N strain; [7]): 15 days; overall animal survival (DENV-2 NGC-N strain; [7]): minor effect; overall survival (DENV-2 NGC-N strain; [4]): 60%; overall survival (DENV-2 NGC-N strain; immediate treatment, 8 mg/kg of body weight/day oral): 60%; viral load (DENV-2 NGC-N strain; [5]): significantly reduced; level of DENV-2 entry (DENV-2; [2]): significantly reduced; DENV-2 binding to cells (DENV-2; [3]): no effect; viral-NS3 expression (DENV-2 PL046 strain): dose-dependently reduced"
"COc1ccc(S(=O)(=O)N(CCCC(=O)c2ccc(F)cc2)c2ccccc2)cc1 [Compound 1, N-(4-(4-fluorophenyl)-4-oxobutyl)-4-methoxy-N-phenylbenzenesulfonamide]",56.1,39.3,93 to 94,
"O=C(CCCN(c1ccccc1)S(=O)(=O)c1ccc(OC(F)(F)F)cc1)C1CCCC1 [Compound 11, N-(4-cyclopentyl-4-oxobutyl)-N-phenyl-4-(trifluoromethoxy)benzenesulfonamide]",92.4,118,69 to 70,
"CN([C@@H](Cc1ccc(OS(=O)(=O)c2cccc3cnccc23)cc1)C(=O)N1CCN(c2ccccc2)CC1)S(=O)(=O)c1cccc2cnccc12 [KN-62, reference compound]",,,,IC50 (purified human CaMKII): ~1030 nM
"COc1ccc(S(=O)(=O)N(CCCC(=O)C2CCCCCC2)c2ccc(C3CCCCC3)cc2)cc1 [Compound 16, N-(4-cycloheptyl-4-oxobutyl)-N-(4-cyclohexylphenyl)-4-methoxybenzenesulfonamide]",,13.8,103 to 104,
"Cc1ccc(S(=O)(=O)N(CCCC(=O)C2CCCCCC2)c2ccccc2)cc1 [Compound 13, N-(4-cycloheptyl-4-oxobutyl)-4-methyl-N-phenylbenzenesulfonamide]",99.5,76.9,,
"COc1ccc(S(=O)(=O)N(CCCC(=O)C2CCCCC2)c2ccccc2)cc1 [Compound 6, N-(4-cyclohexyl-4-oxobutyl)-4-methoxy-N-phenylbenzenesulfonamide]",107,63.3,81 to 82,
"COc1ccc(S(=O)(=O)N(CCCC(=O)C2CCCCCC2)c2ccc3c(c2)CCCC3)cc1 [Compound 15, N-(4-cycloheptyl-4-oxobutyl)-4-methoxy-N-(5,6,7,8-tetrahydronaphthalen-2-yl)-benzenesulfonamide]",104,21.5,111 to 112,
"O=C(CCCN(c1ccccc1)S(=O)(=O)c1ccc(Oc2ccccc2)cc1)C1CCCCCC1 [Compound 12, N-(4-cycloheptyl-4-oxobutyl)-4-phenoxy-N-phenylbenzenesulfonamide]",95.5,73.4,127 to 128,
COc1ccc(S(=O)(=O)NCCCC(=O)c2ccc(F)cc2)cc1 [Compound 3],,,84 to 85,
"COc1ccc(S(=O)(=O)N(CCCC(=O)C2CCCCCC2)C2CCCCC2)cc1 [Compound 14, N-(4-cycloheptyl-4-oxobutyl)-N-cyclohexyl-4-methoxybenzenesulfonamide]",97.5,65.7,,
"COc1ccc(S(=O)(=O)N(CCCC(O)c2ccc(F)cc2)c2ccccc2)cc1 (centres unmarked) [Compound 2, N-(4-(4-fluorophenyl)-4-hydroxybutyl)-4-methoxy-N-phenylbenzenesulfonamide]",76.3,48.5,,
"COc1ccc(S(=O)(=O)N(CCCC(=O)C2CCCC2)c2ccccc2)cc1 [Compound 8, N-(4-cyclopentyl-4-oxobutyl)-4-methoxy-N-phenylbenzenesulfonamide]",,25.1,89 to 90,
"COc1ccc(S(=O)(=O)N(CCCC(C)=O)c2ccccc2)cc1 [Compound 5, 4-methoxy-N-(4-oxopentyl)-N-phenylbenzenesulfonamide]",106,101,81 to 82,
"COc1ccc(S(=O)(=O)N(C)CCCC(=O)c2ccc(F)cc2)cc1 [Compound 4, N-(4-(4-fluorophenyl)-4-oxobutyl)-4-methoxy-N-methylbenzenesulfonamide]",106,101,89 to 90,
